Source: patent US20250353891A1 (MEDIMMUNE LIMITED, priority 2022, published 2025)
Like-named read-outs stand apart in the source and are kept apart here. Starred links: 1 amine or outer side, 2 acyl side, 3 side chain; linkers in the order of their positions; H or OH if unused. Non-standard residues stand in square brackets, D forms with d. Residues, ends and D or L forms follow the SMILES beside them. Groups on a side chain read outwards from the residue. *: point of attachment. C20 diacid = O=C(O)CCCCCCCCCCCCCCCCCCC(=O)*; C18 diacid = O=C(O)CCCCCCCCCCCCCCCCC(=O)*; Dip = N[C@H](C(=O)O)C(c1ccccc1)c1ccccc1; γGlu = O=C(O)[C@H](CCC(=O)[*:2])N[*:1]; Stearoyl = CCCCCCCCCCCCCCCCCC(=O)*; Palmitoyl = CCCCCCCCCCCCCCCC(=O)*; αMeF = C[C@](N)(Cc1ccccc1)C(=O)O; Myristoyl = CCCCCCCCCCCCCC(=O)*; PEG2 = NCCOCCOCCC(=O)O; AEEA = NCCOCCOCC(=O)O; Aib = CC(C)(N)C(=O)O

What was measured:
[1] = target: human GLP-1 receptor (hGLP-1R) (Homo sapiens, UniProt P43220); experiment: cAMP production (HTRF) in CHO cells expressing hGLP-1R; format: cell-based; design: expressed in transfected cells; conditions: for EC50: geometric mean, read-out: hGLP-1R EC50
Outline: (§1)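 Read-out: HTRF cAMP (anti-cAMP cryptate donor, cAMP-d2 acceptor in conjugate/lysis buffer), converted to % Delta F and fitted by 4-parameter logistic for EC50. Cell densities were 1×10^5 cells/mL (hGLP-1R) or 2×10^5 cells/mL (hGCGR). Stimulation lasted 30 min at room temperature.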

[2] = target: human glucagon receptor (hGCGR) (Homo sapiens, UniProt P47871); experiment: cAMP production (HTRF) in CHO cells expressing hGCGR; format: cell-based; design: expressed in transfected cells; conditions: geometric mean
Outline: as §1

[3] = Table 6, peptides modified at position 17, cAMP in CHO hGLP-1R cells
[4] = Table 6, % GLP-1R activity relative to GLP-1 / % GlucR activity relative to glucagon
[5] = Table 6, peptides modified at position 17, cAMP in CHO hGCGR cells, read-out: hGluc-R EC50

human glucagon receptor (hGCGR), sequence (P47871 26-477): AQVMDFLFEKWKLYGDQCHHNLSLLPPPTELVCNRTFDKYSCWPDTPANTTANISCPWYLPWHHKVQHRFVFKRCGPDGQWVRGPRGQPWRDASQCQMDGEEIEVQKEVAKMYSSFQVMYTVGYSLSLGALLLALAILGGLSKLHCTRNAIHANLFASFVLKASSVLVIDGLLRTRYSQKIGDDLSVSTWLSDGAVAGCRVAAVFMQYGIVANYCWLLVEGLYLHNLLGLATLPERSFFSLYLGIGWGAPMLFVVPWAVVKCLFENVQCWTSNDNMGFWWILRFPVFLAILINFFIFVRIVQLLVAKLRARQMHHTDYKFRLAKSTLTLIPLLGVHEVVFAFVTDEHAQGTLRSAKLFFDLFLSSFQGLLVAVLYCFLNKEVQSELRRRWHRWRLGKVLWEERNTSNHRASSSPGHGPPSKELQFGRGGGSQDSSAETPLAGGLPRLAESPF
human GLP-1 receptor (hGLP-1R), sequence (P43220 24-463): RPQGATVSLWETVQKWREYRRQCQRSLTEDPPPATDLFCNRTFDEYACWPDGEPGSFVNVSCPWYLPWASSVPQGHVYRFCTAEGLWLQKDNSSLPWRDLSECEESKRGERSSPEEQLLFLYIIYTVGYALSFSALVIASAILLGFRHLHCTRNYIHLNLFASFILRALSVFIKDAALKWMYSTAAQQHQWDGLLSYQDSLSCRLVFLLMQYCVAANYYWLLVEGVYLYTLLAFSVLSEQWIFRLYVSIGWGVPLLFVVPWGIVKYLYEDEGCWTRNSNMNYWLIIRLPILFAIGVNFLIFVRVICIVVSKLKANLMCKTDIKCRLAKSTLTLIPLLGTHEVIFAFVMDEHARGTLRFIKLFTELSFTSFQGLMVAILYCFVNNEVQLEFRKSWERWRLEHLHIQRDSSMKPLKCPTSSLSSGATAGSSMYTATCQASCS

Row | SMILES | EC50 [1, 3] [nM] | % Relative Potency Ratio [1, 4] | EC50 [2, 5] [pM] | other results
1 | CCCCCCCCCCCCCCCC(=O)N[C@@H](CCC(=O)N[C@@H](CCC(=O)NCCOCCOCCC(=O)NCCOCCOCCC(=O)NCCCC[C@H](NC(=O)[C@H](CO)NC(=O)[C@H](CC(=O)O)NC(=O)[C@H](CC(C)C)NC(=O)[C@](C)(Cc1ccccc1)NC(=O)[C@H](CCCCN)NC(=O)[C@H](CO)NC(=O)[C@@H](NC(=O)[C@H](CC(=O)O)NC(=O)[C@H](CO)NC(=O)[C@@H](NC(=O)[C@](C)(Cc1ccccc1)NC(=O)[C@H](CO)NC(=O)CNC(=O)[C@H](CCC(N)=O)NC(=O)C(C)(C)NC(=O)[C@@H](N)Cc1c[nH]cn1)[C@@H](C)O)C(C)C)C(=O)N[C@@H](C)C(=O)N[C@@H](C)C(=O)N[C@@H](CCC(N)=O)C(=O)N[C@@H](CC(=O)O)C(=O)N[C@H](C(=O)N[C@H](C(=O)N[C@@H](CCC(N)=O)C(=O)N[C@H](C(=O)N[C@H](C(=O)N[C@@H](C)C(=O)N[C@@H](CC(N)=O)C(N)=O)[C@@H](C)CC)[C@@H](C)CC)C(C)C)[C@@H](C)CC)C(=O)O)C(=O)O [Peptide 75] (H-H[Aib]QGS[αMeF]TSDVSK[αMeF]LDSK([PEG2-PEG2-γGlu-γGlu-Palmitoyl])AAQDIVQIIAN-NH2; N-terminus assumed) | 0.0189 | 293.5 | 2800 | 
2 | CC[C@H](C)[C@H](NC(=O)C(C)(C)NC(=O)[C@H](CCCCNC(=O)COCCOCCNC(=O)COCCOCCNC(=O)CC[C@H](NC(=O)CC[C@H](NC(=O)CCCCCCCCCCCCCCCCC(=O)O)C(=O)O)C(=O)O)NC(=O)[C@@H](NC(=O)[C@](C)(Cc1ccccc1)NC(=O)[C@H](CC(=O)O)NC(=O)[C@H](CCC(N)=O)NC(=O)[C@H](C)NC(=O)[C@H](C)NC(=O)[C@H](CCCNC(=N)N)NC(=O)[C@H](CO)NC(=O)[C@H](CC(=O)O)NC(=O)[C@H](CC(C)C)NC(=O)[C@](C)(Cc1ccccc1)NC(=O)[C@H](CCCCN)NC(=O)[C@H](CO)NC(=O)[C@@H](NC(=O)[C@H](CC(=O)O)NC(=O)[C@H](CO)NC(=O)[C@@H](NC(=O)[C@](C)(Cc1ccccc1)NC(=O)[C@H](CO)NC(=O)CNC(=O)[C@H](Cc1c[nH]cn1)NC(=O)C(C)(C)NC(=O)[C@@H](N)Cc1c[nH]cn1)[C@@H](C)O)C(C)C)C(C)C)C(=O)N[C@@H](C)C(=O)N[C@@H](CC(N)=O)C(=O)N[C@H](C(=O)NCC(=O)NCC(N)=O)[C@@H](C)O [Peptide 373] (H-H[Aib]HGS[αMeF]TSDVSK[αMeF]LDSRAAQD[αMeF]VK([AEEA-AEEA-γGlu-γGlu-C18 diacid])[Aib]IANTGG-NH2; N-terminus assumed) |  |  |  | % Relative Potency Ratio ([1]; % GLP-1R activity relative to GLP-1 / % GlucR activity relative to glucagon): 7.2; EC50 ([1]; cAMP, CHO cells, 0.1% BSA): 0.0667 nM; EC50 ([2]; cAMP, CHO cells, 0.1% BSA, read-out: hGluc-R EC50): 242 pM
3 | CC(C)C[C@H](NC(=O)[C@H](Cc1c[nH]c2ccccc12)NC(=O)[C@H](CCCNC(=N)N)NC(=O)[C@@H](NC(=O)[C@H](Cc1ccccc1)NC(=O)[C@H](CC(=O)O)NC(=O)[C@H](CCC(N)=O)NC(=O)[C@H](C)NC(=O)[C@H](CCCNC(=N)N)NC(=O)[C@H](CCCCNC(=O)COCCOCCNC(=O)COCCOCCNC(=O)CC[C@H](NC(=O)CCCCCCCCCCCCCCCCC(=O)O)C(=O)O)NC(=O)[C@H](CCCNC(=N)N)NC(=O)[C@H](CC(=O)O)NC(=O)[C@H](CC(C)C)NC(=O)[C@](C)(Cc1ccccc1)NC(=O)[C@H](CCCCN)NC(=O)[C@H](CO)NC(=O)[C@@H](NC(=O)[C@H](CC(=O)O)NC(=O)[C@H](CO)NC(=O)[C@@H](NC(=O)[C@H](Cc1ccccc1)NC(=O)[C@@H](NC(=O)CNC(=O)[C@H](CCC(N)=O)NC(=O)C(C)(C)NC(=O)[C@@H](N)Cc1c[nH]cn1)[C@@H](C)O)[C@@H](C)O)C(C)C)C(C)C)C(=O)N[C@H](C(=O)NC(C)(C)C(=O)N[C@@H](CCC(=O)O)C(N)=O)C(C)C [Peptide 436] (H-H[Aib]QGTFTSDVSK[αMeF]LDRK([AEEA-AEEA-γGlu-C18 diacid])RAQDFVRWLV[Aib]E-NH2; N-terminus assumed) | 0.00743 | 18.3 | 68.8 | 
4 | CC[C@H](C)[C@H](NC(=O)C(C)(C)NC(=O)[C@H](CCC(N)=O)NC(=O)[C@@H](NC(=O)[C@](C)(Cc1ccccc1)NC(=O)[C@H](CC(=O)O)NC(=O)[C@H](CCCCNC(=O)COCCOCCNC(=O)COCCOCCNC(=O)CC[C@H](NC(=O)CC[C@H](NC(=O)CCCCCCCCCCCCCCCCCCC(=O)O)C(=O)O)C(=O)O)NC(=O)[C@H](C)NC(=O)[C@H](C)NC(=O)[C@H](CCCNC(=N)N)NC(=O)[C@H](CO)NC(=O)[C@H](CC(=O)O)NC(=O)[C@H](CC(C)C)NC(=O)C(C)(C)NC(=O)[C@H](CCCCN)NC(=O)[C@H](CO)NC(=O)[C@@H](NC(=O)[C@H](CC(=O)O)NC(=O)[C@H](CO)NC(=O)[C@@H](NC(=O)[C@](C)(Cc1ccccc1)NC(=O)[C@H](CO)NC(=O)CNC(=O)[C@H](Cc1c[nH]cn1)NC(=O)C(C)(C)NC(=O)[C@@H](N)Cc1c[nH]cn1)[C@@H](C)O)C(C)C)C(C)C)C(=O)N[C@@H](C)C(=O)N[C@@H](CC(N)=O)C(=O)N[C@H](C(N)=O)[C@@H](C)O [Peptide 295] (H-H[Aib]HGS[αMeF]TSDVSK[Aib]LDSRAAK([AEEA-AEEA-γGlu-γGlu-C20 diacid])D[αMeF]VQ[Aib]IANT-NH2) |  |  |  | EC50 ([1]; Table 7, peptides modified at position 20, cAMP in CHO hGLP-1R cells): 0.312 nM; % Relative Potency Ratio ([1]; Table 7, % GLP-1R activity relative to GLP-1 / % GlucR activity relative to glucagon): 108.2; EC50 ([2]; Table 7, peptides modified at position 20, cAMP in CHO hGCGR cells, read-out: hGluc-R EC50): 17100 pM
5 | CCCCCCCCCCCCCC(=O)N[C@@H](CCC(=O)N[C@@H](CCC(=O)NCCOCCOCCC(=O)NCCOCCOCCC(=O)NCCCC[C@H](NC(=O)[C@H](CO)NC(=O)[C@H](CC(=O)O)NC(=O)[C@H](CC(C)C)NC(=O)[C@@H](NC(=O)[C@H](CCCCN)NC(=O)[C@H](CO)NC(=O)[C@@H](NC(=O)[C@H](CC(=O)O)NC(=O)[C@H](CO)NC(=O)[C@@H](NC(=O)[C@](C)(Cc1ccccc1)NC(=O)[C@H](CO)NC(=O)CNC(=O)[C@H](CCC(N)=O)NC(=O)[C@H](CO)NC(=O)[C@@H](N)Cc1c[nH]cn1)[C@@H](C)O)C(C)C)[C@@H](C)CC)C(=O)N[C@@H](C)C(=O)N[C@@H](C)C(=O)N[C@@H](CCC(N)=O)C(=O)N[C@@H](CC(=O)O)C(=O)N[C@@](C)(Cc1ccccc1)C(=O)N[C@H](C(=O)N[C@@H](CCC(N)=O)C(=O)NC(C)(C)C(=O)N[C@H](C(=O)N[C@H](C(=O)N[C@@H](CC(N)=O)C(=O)N[C@H](C(N)=O)[C@@H](C)O)[C@@H](C)CC)[C@@H](C)CC)C(C)C)C(=O)O)C(=O)O [Peptide 119] (H-HSQGS[αMeF]TSDVSKILDSK([PEG2-PEG2-γGlu-γGlu-Myristoyl])AAQD[αMeF]VQ[Aib]IINT-NH2; N-terminus assumed) | 0.00139 | 2.4 | 1.7 | 
6 | CC[C@H](C)[C@H](NC(=O)[C@H](Cc1c[nH]c2ccccc12)NC(=O)[C@H](CCCCNC(=O)COCCOCCNC(=O)COCCOCCNC(=O)CC[C@H](NC(=O)CCCCCCCCCCCCCCCCC(=O)O)C(=O)O)NC(=O)[C@@H](NC(=O)[C@H](Cc1ccccc1)NC(=O)[C@H](CC(=O)O)NC(=O)[C@H](CCC(N)=O)NC(=O)[C@H](C)NC(=O)C(C)(C)NC(=O)[C@H](CCCNC(=N)N)NC(=O)[C@H](CO)NC(=O)[C@H](CC(=O)O)NC(=O)[C@H](CC(C)C)NC(=O)[C@](C)(Cc1ccccc1)NC(=O)[C@H](CCCCN)NC(=O)[C@H](CO)NC(=O)[C@@H](NC(=O)[C@H](CC(=O)O)NC(=O)[C@H](CO)NC(=O)[C@@H](NC(=O)[C@](C)(Cc1ccccc1)NC(=O)[C@H](CO)NC(=O)CNC(=O)[C@H](Cc1c[nH]cn1)NC(=O)C(C)(C)NC(=O)[C@@H](N)Cc1c[nH]cn1)[C@@H](C)O)C(C)C)C(C)C)C(=O)N[C@@H](C)C(=O)N[C@@H](CC(N)=O)C(=O)N[C@H](C(N)=O)[C@@H](C)O [Peptide 365, H(Aib)HGS(αMePhe)TSDVSK(αMePhe)LDSR(Aib)AQDFVK(O2Oc-O2Oc-γE-C18diacid)24WIANT-amide] (H-H[Aib]HGS[αMeF]TSDVSK[αMeF]LDSR[Aib]AQDFVK([AEEA-AEEA-γGlu-C18 diacid])WIANT-NH2; N-terminus assumed) |  |  |  | % Relative Potency Ratio [1]: 0.3; EC50 ([1]; cAMP, CHO cells, 0.1% BSA): 0.0513 nM; EC50 ([2]; hGluc-R EC50 (pM), cAMP, CHO cells, 0.1% BSA): 8.77 pM
7 | CCCCCCCCCCCCCCCCCC(=O)NCCOCCOCCC(=O)NCCOCCOCCC(=O)N[C@@H](CCC(=O)N[C@@H](CCC(=O)NCCCC[C@H](NC(=O)[C@H](CO)NC(=O)[C@H](CC(=O)O)NC(=O)[C@H](CC(C)C)NC(=O)[C@@H](NC(=O)[C@H](CCCCN)NC(=O)[C@H](CO)NC(=O)[C@@H](NC(=O)[C@H](CC(=O)O)NC(=O)[C@H](CO)NC(=O)[C@@H](NC(=O)[C@](C)(Cc1ccccc1)NC(=O)[C@H](CO)NC(=O)CNC(=O)[C@H](CCC(N)=O)NC(=O)[C@H](CO)NC(=O)[C@@H](N)Cc1c[nH]cn1)[C@@H](C)O)C(C)C)C(c1ccccc1)c1ccccc1)C(=O)N[C@@H](C)C(=O)N[C@@H](C)C(=O)N[C@@H](CCC(N)=O)C(=O)N[C@@H](CC(=O)O)C(=O)N[C@@](C)(Cc1ccccc1)C(=O)N[C@H](C(=O)N[C@@H](CCC(=O)O)C(=O)NC(C)(C)C(=O)N[C@H](C(=O)N[C@H](C(=O)N[C@@H](CC(N)=O)C(=O)N[C@H](C(N)=O)[C@@H](C)O)[C@@H](C)CC)[C@@H](C)CC)C(C)C)C(=O)O)C(=O)O [Peptide 59] (H-HSQGS[αMeF]TSDVSK[Dip]LDSK([γGlu-γGlu-PEG2-PEG2-Stearoyl])AAQD[αMeF]VE[Aib]IINT-NH2; N-terminus assumed) | 0.00618 | 9.1 | 28.4 | 
